In the NIST ThermoML archive (doi:10.1021/je200150r):
± gives the expanded uncertainty stated by the source.

Experiment: xn = mol fraction of the nth substance listed
Details: 101 kPa, Liquid; for viscosity: Capillary tube (Ostwald / Ubbelohde) method; for mass density: Pycnometric method

OCc1ccccc1 [benzenemethanol] + CCC(C)=O
Details | mass density, 303.15 K [kg/m3] | mass density, 308.15 K [kg/m3] | mass density, 313.15 K [kg/m3] | mass density, 318.15 K [kg/m3] | mass density, 323.15 K [kg/m3] | viscosity, 303.15 K [mPa·s] | viscosity, 308.15 K [mPa·s] | viscosity, 313.15 K [mPa·s] | viscosity, 318.15 K [mPa·s] | viscosity, 323.15 K [mPa·s]
x1 = 0.1003 | 825.4 ± 0.9 | 820.4 ± 0.9 | 815.4 ± 0.9 | 810.4 ± 0.9 | 805.3 ± 0.9 | 0.446 ± 0.006 | 0.424 ± 0.006 | 0.403 ± 0.005 | 0.385 ± 0.005 | 0.368 ± 0.005
x1 = 0.2 | 854.7 ± 0.9 | 849.9 ± 0.9 | 845.1 ± 0.9 | 840.3 ± 0.9 | 835.5 ± 0.9 | 0.554 ± 0.007 | 0.524 ± 0.007 | 0.497 ± 0.006 | 0.472 ± 0.006 | 0.451 ± 0.006
x1 = 0.301 | 882.5 ± 0.9 | 877.8 ± 0.9 | 873 ± 0.9 | 868.3 ± 0.9 | 863.6 ± 0.9 | 0.697 ± 0.009 | 0.655 ± 0.008 | 0.616 ± 0.008 | 0.582 ± 0.007 | 0.551 ± 0.007
x1 = 0.3991 | 907.5 ± 0.9 | 903 ± 0.9 | 898.4 ± 0.9 | 893.9 ± 0.9 | 889.3 ± 0.9 | 0.876 ± 0.011 | 0.818 ± 0.01 | 0.765 ± 0.01 | 0.718 ± 0.009 | 0.676 ± 0.009
x1 = 0.5001 | 932.6 ± 0.9 | 928.2 ± 0.9 | 923.8 ± 0.9 | 919.4 ± 0.9 | 915 ± 0.9 | 1.131 ± 0.014 | 1.046 ± 0.013 | 0.97 ± 0.012 | 0.904 ± 0.011 | 0.845 ± 0.011
x1 = 0.6 | 956.3 ± 0.9 | 952 ± 0.9 | 947.8 ± 0.9 | 943.6 ± 0.9 | 939.3 ± 0.9 | 1.476 ± 0.019 | 1.351 ± 0.017 | 1.242 ± 0.016 | 1.146 ± 0.014 | 1.063 ± 0.013
x1 = 0.7008 | 978.2 ± 0.9 | 974.1 ± 0.9 | 969.9 ± 0.9 | 965.8 ± 0.9 | 961.7 ± 0.9 | 1.947 ± 0.025 | 1.761 ± 0.022 | 1.599 ± 0.02 | 1.461 ± 0.018 | 1.341 ± 0.017
x1 = 0.8001 | 998.5 ± 0.9 | 994.6 ± 0.9 | 990.5 ± 0.9 | 985.6 ± 0.9 | 982.7 ± 0.9 | 2.586 ± 0.033 | 2.307 ± 0.029 | 2.063 ± 0.026 | 1.866 ± 0.023 | 1.694 ± 0.021
x1 = 0.8997 | 1018.1 ± 0.9 | 1014.3 ± 0.9 | 1010.4 ± 0.9 | 1006.5 ± 0.9 | 1002.7 ± 0.9 | 3.452 ± 0.044 | 3.033 ± 0.038 | 2.682 ± 0.034 | 2.391 ± 0.03 | 2.144 ± 0.027
x1 = 1 | 1037.6 ± 0.9 | 1033.8 ± 0.9 | 1030.1 ± 0.9 | 1026.3 ± 0.9 | 1022.5 ± 0.9 | 4.689 ± 0.059 | 4.058 ± 0.051 | 3.531 ± 0.044 | 3.103 ± 0.039 | 2.747 ± 0.035
